{"source": "PubChem BioAssay (NCI)", "assay_in_all_cases": "DTP human tumour cell line panel, 48 h", "key": {"786-0 renal": {"tested_on": "786-0 renal"}, "A498 renal": {"tested_on": "A498 renal"}, "A549 NSCLC": {"tested_on": "A549 NSCLC"}, "ACHN renal": {"tested_on": "ACHN renal"}, "BT-549 breast": {"tested_on": "BT-549 breast"}, "CAKI-1 renal": {"tested_on": "CAKI-1 renal"}, "CCRF-CEM leukemia": {"tested_on": "CCRF-CEM leukemia"}, "COLO 205 colon": {"tested_on": "COLO 205 colon"}, "DU-145 prostate": {"tested_on": "DU-145 prostate"}, "EKVX NSCLC": {"tested_on": "EKVX NSCLC"}, "HCC-2998 colon": {"tested_on": "HCC-2998 colon"}, "HCT-116 colon": {"tested_on": "HCT-116 colon"}, "HCT-15 colon": {"tested_on": "HCT-15 colon"}, "HL-60(TB) leukemia": {"tested_on": "HL-60(TB) leukemia"}, "HOP-62 NSCLC": {"tested_on": "HOP-62 NSCLC"}, "HOP-92 NSCLC": {"tested_on": "HOP-92 NSCLC"}, "HS 578T breast": {"tested_on": "HS 578T breast"}, "HT29 colon": {"tested_on": "HT29 colon"}, "IGROV1 ovarian": {"tested_on": "IGROV1 ovarian"}, "K-562 leukemia": {"tested_on": "K-562 leukemia"}, "KM12 colon": {"tested_on": "KM12 colon"}, "LOX IMVI melanoma": {"tested_on": "LOX IMVI melanoma"}, "M14 melanoma": {"tested_on": "M14 melanoma"}, "MALME-3M melanoma": {"tested_on": "MALME-3M melanoma"}, "MCF7 breast": {"tested_on": "MCF7 breast"}, "MDA-MB-231 breast": {"tested_on": "MDA-MB-231 breast"}, "MDA-MB-435": {"tested_on": "MDA-MB-435"}, "MDA-MB-468 breast": {"tested_on": "MDA-MB-468 breast"}, "MOLT-4 leukemia": {"tested_on": "MOLT-4 leukemia"}, "NCI-H226 lung": {"tested_on": "NCI-H226 lung"}}, "note": "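Growth conditions: 96-well plates. Treatment: test compound, 48 hours, 5 concentrations. Analysis: linear interpolation between bracketing concentrations; unreached endpoints set to highest concentration. GI50 = concentration required for 50% inhibition of growth. TGI denotes the concentration required for complete inhibition of growth.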"}
{"smiles": "CC1(C)CC[C@]2(C(=O)O)CC[C@]3(C)C(=CCC4[C@@]5(C)C[C@@H](O)[C@@H]6OC(c7ccc(F)cc7)OC[C@@]6(C)C5CC[C@]43C)C2C1", "note": "(some centres undefined)", "values": [{"measurement": "GI50", "setting": "786-0 renal", "value": 7.56, "unit": "µM"}, {"measurement": "TGI", "setting": "786-0 renal", "value": 27.5, "unit": "µM"}, {"measurement": "GI50", "setting": "A498 renal", "value": 5.41, "unit": "µM"}, {"measurement": "TGI", "setting": "A498 renal", "value": 20.1, "unit": "µM"}, {"measurement": "GI50", "setting": "A549 NSCLC", "value": 2.81, "unit": "µM"}, {"measurement": "TGI", "setting": "A549 NSCLC", "value": 16.5, "unit": "µM"}, {"measurement": "GI50", "setting": "ACHN renal", "value": 3.56, "unit": "µM"}, {"measurement": "TGI", "setting": "ACHN renal", "value": 32.5, "unit": "µM"}, {"measurement": "GI50", "setting": "BT-549 breast", "value": 4.34, "unit": "µM"}, {"measurement": "TGI", "setting": "BT-549 breast", "value": 17.9, "unit": "µM"}, {"measurement": "GI50", "setting": "CAKI-1 renal", "value": 9.28, "unit": "µM"}, {"measurement": "TGI", "setting": "CAKI-1 renal", "value": 26.3, "unit": "µM"}, {"measurement": "GI50", "setting": "CCRF-CEM leukemia", "value": 3.58, "unit": "µM"}, {"measurement": "TGI", "setting": "CCRF-CEM leukemia", "value": 25.8, "unit": "µM"}, {"measurement": "GI50", "setting": "COLO 205 colon", "value": 4.53, "unit": "µM"}, {"measurement": "TGI", "setting": "COLO 205 colon", "value": 17.9, "unit": "µM"}, {"measurement": "GI50", "setting": "DU-145 prostate", "value": 5.23, "unit": "µM"}, {"measurement": "TGI", "setting": "DU-145 prostate", "value": "> 100", "unit": "µM"}, {"measurement": "GI50", "setting": "EKVX NSCLC", "value": 3.14, "unit": "µM"}, {"measurement": "TGI", "setting": "EKVX NSCLC", "value": 15.3, "unit": "µM"}, {"measurement": "GI50", "setting": "HCC-2998 colon", "value": 4.34, "unit": "µM"}, {"measurement": "TGI", "setting": "HCC-2998 colon", "value": 14.8, "unit": "µM"}, {"measurement": "GI50", "setting": "HCT-116 colon", "value": 3.5, "unit": "µM"}, {"measurement": "TGI", "setting": "HCT-116 colon", "value": 13.7, "unit": "µM"}, {"measurement": "GI50", "setting": "HCT-15 colon", "value": 2.42, "unit": "µM"}, {"measurement": "TGI", "setting": "HCT-15 colon", "value": 11.6, "unit": "µM"}, {"measurement": "GI50", "setting": "HL-60(TB) leukemia", "value": 2.29, "unit": "µM"}, {"measurement": "TGI", "setting": "HL-60(TB) leukemia", "value": 6.41, "unit": "µM"}, {"measurement": "GI50", "setting": "HOP-62 NSCLC", "value": 6.68, "unit": "µM"}, {"measurement": "TGI", "setting": "HOP-62 NSCLC", "value": 29.6, "unit": "µM"}, {"measurement": "GI50", "setting": "HOP-92 NSCLC", "value": 5.32, "unit": "µM"}, {"measurement": "TGI", "setting": "HOP-92 NSCLC", "value": 27.6, "unit": "µM"}, {"measurement": "GI50", "setting": "HS 578T breast", "value": 5.56, "unit": "µM"}, {"measurement": "TGI", "setting": "HS 578T breast", "value": 48.5, "unit": "µM"}, {"measurement": "GI50", "setting": "HT29 colon", "value": 5.09, "unit": "µM"}, {"measurement": "TGI", "setting": "HT29 colon", "value": 30.3, "unit": "µM"}, {"measurement": "GI50", "setting": "IGROV1 ovarian", "value": 7.62, "unit": "µM"}, {"measurement": "TGI", "setting": "IGROV1 ovarian", "value": 24.9, "unit": "µM"}, {"measurement": "GI50", "setting": "K-562 leukemia", "value": 2.26, "unit": "µM"}, {"measurement": "TGI", "setting": "K-562 leukemia", "value": "> 100", "unit": "µM"}, {"measurement": "GI50", "setting": "KM12 colon", "value": 4.2, "unit": "µM"}, {"measurement": "TGI", "setting": "KM12 colon", "value": 18.9, "unit": "µM"}, {"measurement": "GI50", "setting": "LOX IMVI melanoma", "value": 4.13, "unit": "µM"}, {"measurement": "TGI", "setting": "LOX IMVI melanoma", "value": 16.2, "unit": "µM"}, {"measurement": "GI50", "setting": "M14 melanoma", "value": 10.7, "unit": "µM"}, {"measurement": "TGI", "setting": "M14 melanoma", "value": 27, "unit": "µM"}, {"measurement": "GI50", "setting": "MALME-3M melanoma", "value": 8.39, "unit": "µM"}, {"measurement": "TGI", "setting": "MALME-3M melanoma", "value": 22.9, "unit": "µM"}, {"measurement": "GI50", "setting": "MCF7 breast", "value": 4.03, "unit": "µM"}, {"measurement": "TGI", "setting": "MCF7 breast", "value": 28.2, "unit": "µM"}, {"measurement": "GI50", "setting": "MDA-MB-231 breast", "value": 13, "unit": "µM"}, {"measurement": "TGI", "setting": "MDA-MB-231 breast", "value": 28.7, "unit": "µM"}, {"measurement": "GI50", "setting": "MDA-MB-435", "value": 10.8, "unit": "µM"}, {"measurement": "TGI", "setting": "MDA-MB-435", "value": 23.7, "unit": "µM"}, {"measurement": "GI50", "setting": "MDA-MB-468 breast", "value": 3.26, "unit": "µM"}, {"measurement": "TGI", "setting": "MDA-MB-468 breast", "value": 19.5, "unit": "µM"}, {"measurement": "GI50", "setting": "MOLT-4 leukemia", "value": 2.64, "unit": "µM"}, {"measurement": "TGI", "setting": "MOLT-4 leukemia", "value": 12, "unit": "µM"}, {"measurement": "GI50", "setting": "NCI-H226 lung", "value": 3.96, "unit": "µM"}]}
